Experimental data reported in ChEMBL document CHEMBL4507319 (2021).

Tests used:
[1] = test system: Tyrosine-protein kinase ABL1 (Homo sapiens), P00519 [H396P]; conditions: Compound concentration 1000.0 nM
[2] = biological target: Tyrosine-protein kinase ABL1 (Homo sapiens) (UniProt P00519); conditions: Compound concentration 1000.0 nM
[3] = biological target: Activin receptor type-2A (Homo sapiens) (UniProt P27037); conditions: Compound concentration 1000.0 nM
[4] = biological target: Dual specificity protein kinase CLK1 (Homo sapiens) (UniProt P49759); conditions: Compound concentration 1000.0 nM
Chain of Dual specificity protein kinase CLK1 (Homo sapiens) (P49759 whole entry, looked up): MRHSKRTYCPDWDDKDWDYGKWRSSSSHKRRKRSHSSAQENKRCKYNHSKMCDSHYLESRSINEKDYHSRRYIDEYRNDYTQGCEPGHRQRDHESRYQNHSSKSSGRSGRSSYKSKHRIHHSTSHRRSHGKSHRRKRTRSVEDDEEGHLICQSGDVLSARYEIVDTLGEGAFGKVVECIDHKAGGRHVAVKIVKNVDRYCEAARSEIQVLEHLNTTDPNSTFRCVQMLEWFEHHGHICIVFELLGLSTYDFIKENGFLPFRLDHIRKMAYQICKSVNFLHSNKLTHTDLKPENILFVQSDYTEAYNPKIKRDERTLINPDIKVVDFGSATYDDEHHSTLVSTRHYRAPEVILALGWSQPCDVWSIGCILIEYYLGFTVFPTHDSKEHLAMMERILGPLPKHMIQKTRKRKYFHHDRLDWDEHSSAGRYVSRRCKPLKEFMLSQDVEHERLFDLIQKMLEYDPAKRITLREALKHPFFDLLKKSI

[5] = biological target: Megakaryocyte-associated tyrosine-protein kinase (Homo sapiens) (UniProt P42679); conditions: Compound concentration 1000.0 nM
Chain of Megakaryocyte-associated tyrosine-protein kinase (Homo sapiens) (P42679 whole entry): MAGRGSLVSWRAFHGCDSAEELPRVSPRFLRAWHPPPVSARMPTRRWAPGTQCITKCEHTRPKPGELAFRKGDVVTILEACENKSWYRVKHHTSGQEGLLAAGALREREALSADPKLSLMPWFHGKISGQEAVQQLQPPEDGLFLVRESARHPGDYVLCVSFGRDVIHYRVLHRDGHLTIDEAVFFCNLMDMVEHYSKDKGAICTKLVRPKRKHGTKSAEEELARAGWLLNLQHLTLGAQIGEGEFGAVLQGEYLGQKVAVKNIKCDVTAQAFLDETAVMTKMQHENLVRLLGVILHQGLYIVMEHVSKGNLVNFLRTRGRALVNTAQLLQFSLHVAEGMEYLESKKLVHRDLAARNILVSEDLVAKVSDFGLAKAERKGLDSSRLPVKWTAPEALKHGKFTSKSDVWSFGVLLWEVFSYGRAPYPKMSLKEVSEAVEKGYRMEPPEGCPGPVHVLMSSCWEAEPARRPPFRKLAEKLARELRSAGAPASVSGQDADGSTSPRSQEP

[6] = biological target: Dual specificity tyrosine-phosphorylation-regulated kinase 1A (Homo sapiens) (UniProt Q13627); conditions: Compound concentration 1000.0 nM
[7] = test system: Epidermal growth factor receptor (Homo sapiens), P00533 [G719C]; conditions: Compound concentration 1000.0 nM
[8] = test system: Epidermal growth factor receptor (Homo sapiens), P00533 [UNDEFINED MUTATION]; conditions: Compound concentration 1000.0 nM
[9] = biological target: Insulin receptor-related protein (Homo sapiens) (UniProt P14616); conditions: Compound concentration 1000.0 nM
[10] = biological target: Mitogen-activated protein kinase 8 (Homo sapiens) (UniProt P45983); conditions: Compound concentration 1000.0 nM
[11] = test system: Mast/stem cell growth factor receptor Kit (Homo sapiens), P10721 [V559D,T670I]; conditions: Compound concentration 1000.0 nM
[12] = biological target: Mitogen-activated protein kinase kinase kinase kinase 2 (Homo sapiens) (UniProt Q12851); conditions: Compound concentration 1000.0 nM
[13] = biological target: Dual specificity mitogen-activated protein kinase kinase 5 (Homo sapiens) (UniProt Q13163); conditions: Compound concentration 1000.0 nM
[14] = biological target: MAP kinase-interacting serine/threonine-protein kinase 2 (Homo sapiens) (UniProt Q9HBH9); conditions: Compound concentration 1000.0 nM
Chain of MAP kinase-interacting serine/threonine-protein kinase 2 (Homo sapiens) (Q9HBH9 whole entry, looked up): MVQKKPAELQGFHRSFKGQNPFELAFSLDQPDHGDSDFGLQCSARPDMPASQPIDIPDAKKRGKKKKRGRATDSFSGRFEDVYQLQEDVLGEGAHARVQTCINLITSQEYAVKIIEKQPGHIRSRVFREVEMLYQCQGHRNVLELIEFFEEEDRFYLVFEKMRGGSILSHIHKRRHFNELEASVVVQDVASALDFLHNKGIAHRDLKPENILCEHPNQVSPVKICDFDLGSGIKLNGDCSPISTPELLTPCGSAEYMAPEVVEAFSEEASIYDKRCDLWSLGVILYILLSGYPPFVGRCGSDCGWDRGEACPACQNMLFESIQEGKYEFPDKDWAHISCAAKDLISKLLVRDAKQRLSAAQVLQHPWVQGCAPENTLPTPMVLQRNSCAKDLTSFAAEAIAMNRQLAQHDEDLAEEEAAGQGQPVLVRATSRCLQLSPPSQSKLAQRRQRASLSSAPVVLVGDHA

[15] = biological target: T1, Serine/threonine-protein kinase 4 (Homo sapiens) (UniProt Q13043); conditions: Compound concentration 1000.0 nM
T1 sequence (whole entry): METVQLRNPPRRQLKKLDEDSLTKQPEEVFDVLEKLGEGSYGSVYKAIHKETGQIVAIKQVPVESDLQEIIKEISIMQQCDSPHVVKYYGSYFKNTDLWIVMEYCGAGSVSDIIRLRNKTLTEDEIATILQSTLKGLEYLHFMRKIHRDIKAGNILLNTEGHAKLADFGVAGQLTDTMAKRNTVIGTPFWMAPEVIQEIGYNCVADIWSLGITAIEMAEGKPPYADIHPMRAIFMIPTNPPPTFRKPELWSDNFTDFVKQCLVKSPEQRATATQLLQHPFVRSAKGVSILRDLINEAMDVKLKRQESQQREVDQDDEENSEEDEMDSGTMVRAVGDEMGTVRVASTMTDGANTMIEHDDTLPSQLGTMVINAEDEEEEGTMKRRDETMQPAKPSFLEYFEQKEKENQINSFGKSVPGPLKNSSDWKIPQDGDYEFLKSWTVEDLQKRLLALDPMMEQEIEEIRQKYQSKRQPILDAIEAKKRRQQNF

[16] = biological target: Serine/threonine-protein kinase Nek6 (Homo sapiens) (UniProt Q9HC98); conditions: Compound concentration 1000.0 nM
Chain of Serine/threonine-protein kinase Nek6 (Homo sapiens) (Q9HC98 whole entry): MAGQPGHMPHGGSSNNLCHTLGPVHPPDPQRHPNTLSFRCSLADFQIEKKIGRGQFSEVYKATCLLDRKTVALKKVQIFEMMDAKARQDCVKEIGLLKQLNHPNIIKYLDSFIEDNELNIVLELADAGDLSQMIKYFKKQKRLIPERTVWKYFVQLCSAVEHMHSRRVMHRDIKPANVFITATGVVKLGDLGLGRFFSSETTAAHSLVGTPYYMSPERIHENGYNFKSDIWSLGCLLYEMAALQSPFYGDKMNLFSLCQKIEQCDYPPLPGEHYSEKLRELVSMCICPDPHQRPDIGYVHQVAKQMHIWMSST

[17] = biological target: Serine/threonine-protein kinase Nek7 (Homo sapiens) (UniProt Q8TDX7); conditions: Compound concentration 1000.0 nM
Chain of Serine/threonine-protein kinase Nek7 (Homo sapiens) (Q8TDX7 whole entry, looked up): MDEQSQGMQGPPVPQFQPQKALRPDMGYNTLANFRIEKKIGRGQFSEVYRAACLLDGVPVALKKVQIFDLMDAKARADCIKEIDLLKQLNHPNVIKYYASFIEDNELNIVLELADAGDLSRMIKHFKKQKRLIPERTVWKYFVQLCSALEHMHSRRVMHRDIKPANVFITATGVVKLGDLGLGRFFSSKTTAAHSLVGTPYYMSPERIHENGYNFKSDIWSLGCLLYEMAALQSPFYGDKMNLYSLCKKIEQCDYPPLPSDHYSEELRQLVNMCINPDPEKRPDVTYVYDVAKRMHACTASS

[18] = biological target: Serine/threonine-protein kinase OSR1 (Homo sapiens) (UniProt O95747); conditions: Compound concentration 1000.0 nM
[19] = biological target: Serine/threonine-protein kinase PAK 6 (Homo sapiens) (UniProt Q9NQU5); conditions: Compound concentration 1000.0 nM
Chain of Serine/threonine-protein kinase PAK 6 (Homo sapiens) (Q9NQU5 whole entry, looked up): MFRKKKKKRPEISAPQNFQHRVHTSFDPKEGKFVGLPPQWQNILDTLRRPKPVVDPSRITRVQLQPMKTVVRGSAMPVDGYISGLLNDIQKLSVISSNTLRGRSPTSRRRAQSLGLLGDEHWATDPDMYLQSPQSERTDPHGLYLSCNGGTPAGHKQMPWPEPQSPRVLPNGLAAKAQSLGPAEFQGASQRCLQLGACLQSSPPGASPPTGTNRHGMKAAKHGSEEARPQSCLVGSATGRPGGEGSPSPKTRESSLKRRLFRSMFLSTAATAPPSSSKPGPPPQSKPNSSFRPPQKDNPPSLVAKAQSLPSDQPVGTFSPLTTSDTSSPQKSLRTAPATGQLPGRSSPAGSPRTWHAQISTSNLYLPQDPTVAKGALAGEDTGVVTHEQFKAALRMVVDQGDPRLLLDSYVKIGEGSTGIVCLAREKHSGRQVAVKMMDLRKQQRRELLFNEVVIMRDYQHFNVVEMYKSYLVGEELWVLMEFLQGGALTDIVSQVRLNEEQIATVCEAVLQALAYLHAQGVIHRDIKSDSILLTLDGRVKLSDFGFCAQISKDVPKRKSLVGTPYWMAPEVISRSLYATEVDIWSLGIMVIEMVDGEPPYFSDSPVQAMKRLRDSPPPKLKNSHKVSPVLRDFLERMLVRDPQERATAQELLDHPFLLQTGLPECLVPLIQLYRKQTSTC

[20] = biological target: Cyclin-dependent kinase 17 (Homo sapiens) (UniProt Q00537); conditions: Compound concentration 1000.0 nM
Chain of Cyclin-dependent kinase 17 (Homo sapiens) (Q00537 whole entry, looked up, canonical isoform): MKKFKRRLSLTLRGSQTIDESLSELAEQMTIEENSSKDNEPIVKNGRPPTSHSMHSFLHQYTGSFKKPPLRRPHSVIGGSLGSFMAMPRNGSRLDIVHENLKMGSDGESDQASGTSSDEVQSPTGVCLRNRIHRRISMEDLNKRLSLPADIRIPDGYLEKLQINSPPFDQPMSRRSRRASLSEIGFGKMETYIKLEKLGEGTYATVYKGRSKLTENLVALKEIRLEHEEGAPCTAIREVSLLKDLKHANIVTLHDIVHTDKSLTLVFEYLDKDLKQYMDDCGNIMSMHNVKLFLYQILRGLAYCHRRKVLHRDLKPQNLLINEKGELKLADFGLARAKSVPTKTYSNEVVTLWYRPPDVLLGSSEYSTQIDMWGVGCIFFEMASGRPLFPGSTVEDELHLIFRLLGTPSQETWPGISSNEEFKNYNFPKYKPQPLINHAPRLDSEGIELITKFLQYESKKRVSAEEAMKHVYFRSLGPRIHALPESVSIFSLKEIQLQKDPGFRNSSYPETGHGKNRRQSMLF

[21] = biological target: Phosphatidylinositol 4,5-bisphosphate 3-kinase catalytic subunit alpha isoform (Homo sapiens) (UniProt P42336); conditions: Compound concentration 1000.0 nM
[22] = test system: Phosphatidylinositol 4,5-bisphosphate 3-kinase catalytic subunit alpha isoform (Homo sapiens), P42336 [E545A]; conditions: Compound concentration 1000.0 nM
Chain of Phosphatidylinositol 4,5-bisphosphate 3-kinase catalytic subunit alpha isoform (Homo sapiens), P42336 [E545A] (P42336 whole entry E545A, canonical isoform): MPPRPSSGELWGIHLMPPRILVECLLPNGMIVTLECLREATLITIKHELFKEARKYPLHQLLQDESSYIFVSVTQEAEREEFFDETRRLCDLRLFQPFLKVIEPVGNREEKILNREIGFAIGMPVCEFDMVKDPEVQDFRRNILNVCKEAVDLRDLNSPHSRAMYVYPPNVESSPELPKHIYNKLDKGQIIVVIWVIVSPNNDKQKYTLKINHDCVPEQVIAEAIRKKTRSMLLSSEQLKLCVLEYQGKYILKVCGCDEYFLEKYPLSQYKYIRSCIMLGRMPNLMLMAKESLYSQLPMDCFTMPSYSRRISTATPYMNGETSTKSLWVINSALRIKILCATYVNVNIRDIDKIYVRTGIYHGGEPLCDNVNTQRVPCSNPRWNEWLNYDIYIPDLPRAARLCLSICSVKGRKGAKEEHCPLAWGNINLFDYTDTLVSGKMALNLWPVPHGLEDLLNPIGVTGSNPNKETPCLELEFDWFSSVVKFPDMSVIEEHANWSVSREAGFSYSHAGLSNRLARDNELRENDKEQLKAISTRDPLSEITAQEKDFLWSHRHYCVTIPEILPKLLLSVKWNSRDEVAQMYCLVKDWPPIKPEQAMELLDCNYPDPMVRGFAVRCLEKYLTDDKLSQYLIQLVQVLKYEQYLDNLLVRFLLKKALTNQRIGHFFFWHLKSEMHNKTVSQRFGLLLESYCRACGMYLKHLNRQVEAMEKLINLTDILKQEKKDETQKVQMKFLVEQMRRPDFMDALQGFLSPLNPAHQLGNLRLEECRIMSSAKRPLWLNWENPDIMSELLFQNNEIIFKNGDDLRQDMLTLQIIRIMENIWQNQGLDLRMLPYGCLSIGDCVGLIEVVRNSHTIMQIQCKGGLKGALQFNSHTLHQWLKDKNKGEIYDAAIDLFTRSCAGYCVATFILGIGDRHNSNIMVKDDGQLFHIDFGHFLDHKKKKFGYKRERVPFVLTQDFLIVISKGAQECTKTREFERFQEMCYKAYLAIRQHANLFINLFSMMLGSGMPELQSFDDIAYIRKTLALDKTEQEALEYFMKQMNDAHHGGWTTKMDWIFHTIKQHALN

[23] = biological target: Receptor-interacting serine/threonine-protein kinase 2 (Homo sapiens) (UniProt O43353); conditions: Compound concentration 1000.0 nM
[24] = biological target: T2, Serine/threonine-protein kinase Sgk1 (Homo sapiens) (UniProt O00141); conditions: Compound concentration 1000.0 nM
T2 sequence (whole entry): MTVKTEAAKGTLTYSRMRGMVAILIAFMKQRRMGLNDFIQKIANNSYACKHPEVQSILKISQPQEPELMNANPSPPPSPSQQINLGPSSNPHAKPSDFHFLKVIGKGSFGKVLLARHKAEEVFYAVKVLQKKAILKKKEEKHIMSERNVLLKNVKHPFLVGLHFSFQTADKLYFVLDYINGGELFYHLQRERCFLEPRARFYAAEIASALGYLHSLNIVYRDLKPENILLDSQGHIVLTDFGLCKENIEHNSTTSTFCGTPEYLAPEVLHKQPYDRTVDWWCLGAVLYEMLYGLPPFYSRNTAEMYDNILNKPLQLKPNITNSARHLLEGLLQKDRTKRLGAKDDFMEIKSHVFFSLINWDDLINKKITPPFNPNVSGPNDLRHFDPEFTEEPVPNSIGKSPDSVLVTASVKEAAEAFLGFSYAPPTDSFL

[25] = biological target: T3, Testis-specific serine/threonine-protein kinase 3 (Homo sapiens) (UniProt Q96PN8); conditions: Compound concentration 1000.0 nM
T3 sequence (whole entry): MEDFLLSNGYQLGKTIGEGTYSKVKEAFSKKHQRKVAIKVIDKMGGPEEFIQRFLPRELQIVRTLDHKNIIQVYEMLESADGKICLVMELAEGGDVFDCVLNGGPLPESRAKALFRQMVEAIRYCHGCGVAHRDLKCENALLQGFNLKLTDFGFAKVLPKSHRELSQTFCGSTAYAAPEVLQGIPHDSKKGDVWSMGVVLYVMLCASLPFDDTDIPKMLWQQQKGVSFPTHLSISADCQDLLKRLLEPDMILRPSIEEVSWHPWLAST

[26] = biological target: Mitogen-activated protein kinase kinase kinase 20 (Homo sapiens) (UniProt Q9NYL2); conditions: Compound concentration 1000.0 nM
[27] = biological target: 5-hydroxytryptamine receptor 1A (Homo sapiens) (UniProt P08908); conditions: Compound concentration 10.0 uM
Chain of 5-hydroxytryptamine receptor 1A (Homo sapiens) (P08908 whole entry): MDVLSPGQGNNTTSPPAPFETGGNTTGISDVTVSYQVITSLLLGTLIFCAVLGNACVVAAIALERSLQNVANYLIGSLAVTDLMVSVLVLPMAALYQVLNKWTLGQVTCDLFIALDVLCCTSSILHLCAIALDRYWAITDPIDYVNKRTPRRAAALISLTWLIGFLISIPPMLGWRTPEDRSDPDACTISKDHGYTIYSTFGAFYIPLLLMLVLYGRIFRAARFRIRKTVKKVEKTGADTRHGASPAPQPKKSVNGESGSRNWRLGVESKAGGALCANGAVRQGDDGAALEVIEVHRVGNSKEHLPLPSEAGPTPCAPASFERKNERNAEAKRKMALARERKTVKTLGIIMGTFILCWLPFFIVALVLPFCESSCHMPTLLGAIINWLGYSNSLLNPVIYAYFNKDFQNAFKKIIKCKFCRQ

[28] = biological target: 5-hydroxytryptamine receptor 2B (Homo sapiens) (UniProt P41595); conditions: Compound concentration 10.0 uM

CC1=C(C#N)C(c2ccc3c(c2)c(NC(=O)c2ccccc2C)nn3C)C(C#N)=C(C)N1 [BAY-974]
inactive: residual activity [1] 100% | residual activity [2] 66% | residual activity [3] 97% | residual activity [4] 87% | residual activity [5] 79% | residual activity [6] 97% | residual activity [7] 83% | residual activity [8] 93% | residual activity [9] 100% | residual activity [10] 88% | residual activity [11] 100% | residual activity [12] 99% | residual activity [13] 79% | residual activity [14] 100% | residual activity [15] 80% | residual activity [16] 100% | residual activity [17] 96% | residual activity [18] 83% | residual activity [19] 100% | residual activity [20] 100% | residual activity [21] 100% | residual activity [22] 71% | residual activity [23] 100% | residual activity [24] 89% | residual activity [25] 80% | residual activity [26] 100% | inhibition [27] 8.55% | inhibition [28] 11.4%

CCc1ccccc1C(=O)Nc1n[nH]c2c(C)c(F)c(C3C(C#N)=C(C)N(C)C(C)=C3C#N)cc12 [BAY-3827]
inactive: residual activity [1] 95% | residual activity [2] 88% | residual activity [3] 100% | residual activity [4] 84% | residual activity [5] 100% | residual activity [6] 100% | residual activity [7] 55% | residual activity [8] 100% | residual activity [9] 99% | residual activity [10] 71% | residual activity [11] 98% | residual activity [12] 100% | residual activity [13] 100% | residual activity [14] 98% | residual activity [15] 98% | residual activity [16] 75% | residual activity [17] 83% | residual activity [18] 100% | residual activity [19] 93% | residual activity [20] 93% | residual activity [21] 100% | residual activity [22] 100% | residual activity [23] 100% | residual activity [24] 100% | residual activity [25] 100% | residual activity [26] 90% | inhibition [27] 5.2% | inhibition [28] 32.5%
